These results are taken from US4704229A, “Surface-active compounds of the sulfobetaines family, their manufacture and use, particularly for enhanced oil recovery” (Institut Francais du Petrole, priority 1984, dated 1987).

Assay type in all cases: physicochemical
Series [1] is described as follows: Measurement of the critical micellar concentration (CMC) by surface tension (tensiometer, water/SA-ambient air interface). Conditions: permuted water; for CMC: room temperature of 20° C.; for Surface tension: water/SA-ambient air interface, 20° C., Table II beside CMC. As for the experimental part: Measurement of the critical micellar concentration (CMC) of the sulfobetaines of examples 2, 3, 5, and 7.
Preparation of solutions for the measurements of CMC values.
The method is a standard method using solutions of initial surfactant (SA) concentration of 0.5 g/l, in freshly permuted water, at room temperature of 20° C. The SA-water mixture is stirred up to complete dissolution and then a series of titrated solutions are obtained by successive dilution, by withdrawing a determined volume of mother-solution, brought each time to a standard volume i.e. 1 ml+39 ml; 2 ml+38 ml; 3 ml+37 ml; . . . The various solutions are stirred for 30 minutes and maintained at rest for 2 hours. The surface tensions are measured by means of a tensiometer Tensiomat n^3 Prolabo whose operating principle consists of measuring the pullout load of a stirrup piece placed at the water/SA-ambient air interface, expressed in millinewton/meter.
The CMC value corresponds to the inflection point of the obtained two straight lines.

The nature of series [2]: Solubility in water at 20° C. As for the experimental part: Solubility in water at 20° C. of the sulfobetaines of examples 2, 3, 5 and 7 (Table I).
Series [3] in a line: Micro-emulsion test: determination of optimum solubility and optimum salt content parameters. As to conditions: pentanol as cosurfactant, dodecane as oil; brine NaCl/CaCl2 9/1. From the text: Micro-emulsion test: Determination of optimum solubility and optimum salt content parameters.
The surface-active properties have been determined by analysis of the behaviour of sulfobetaines in a mixture defined according to standard conditions:
brine (NaCl, CaCl2 with (NaCl/CaCl2)=(9/1): 4.5 g
Depending on the salt content of the brine (0-200 g/l), three mono-, di- or triphasic systems can be observed when the product has surface-active properties:
(1) the behavior referred to as Windsor I, wherein an equilibrium is observed between oil phase and με phase*.
(2) a behavior referred to as Windsor II, wherein an equilibrium is observed between με phase and aqueous phase.
(3) and, finally, a so-called Windsor III systems, wherein the intermediary με phase is in equilibrium with a supernatant oil phase and an aqueous phase.
The latter system has the pecularity of very low interfacial tensions. […] The optimum solubility and optimum salinity parameters, corresponding to equal amounts of water and oil in the micro-emulsion, are defined in this system.
By way of example, for sulfobetaine: [drawing 25] the following parameters have been obtained with pentanol as cosurfactant and dodecane as oil: […]

The term solubility denotes the concentration that dissolves in the medium under given conditions. Lower therefore signals a poorly soluble substance.

Take `CCCCCCCCCCCC[N+](C)(C)CCN(CCCS(=O)(=O)[O-])C(C)=O` [Example 2, 4-acetyl-4-aza-6(N,N-dimethyl-laurylammonium)hexane sulfonate]: in series [1], the CMC was found to be 0.04 g/L and the Surface tension was 54 mN/m. Further, the solubility in series [2] turned out to be 300 mg/mL.

In series [1], `CCCCCCCCCCCCCCCCCC[N+](C)(C)CCN(CCCS(=O)(=O)[O-])C(C)=O` [Example 3, 4-acetyl-4-aza-6 (N,N-dimethyl stearylammonium) hexane sulfonate] registered a CMC of 0.01 g/L and a Surface tension of 35 mN/m. The solubility in series [2] came out at 80 mg/mL.

In series [1], `CCCCCCCCCCCC[N+](C)(C)CCCN(CCCS(=O)(=O)[O-])C(C)=O` [Example 5, 4-acetyl-4-aza-7 (N,N-dimethyl laurylammonium)heptane sulfonate] displayed a CMC of 0.15 g/L and a Surface tension of 49 mN/m. Also, in series [2], the solubility amounted to 300 mg/mL.

On to `CCCCCCCCCCCCCCCCCC[N+](C)(C)CCCN(CCCCS(=O)(=O)[O-])C(C)=O` [Example 7, 5-acetyl-5-aza-8 (N,N-dimethylstearylammonium)octane sulfonate], for which, in series [1], the CMC amounted to 0.0028 g/L and the Surface tension came to 39 mN/m. Also, the solubility in series [2] is 4 mg/mL.

For `CCCCCCCCCCCCCCCCCC[N+](C)(C)CCN(CCCS(=O)(=O)[O-])C(C)=O` [drawing 25], in series [3], the optimum salinity parameter stood at 30 g/L and the optimum solubility parameter amounted to 55%.
